# The source made the active and inactive calls.
# How the values were obtained:
# [1] = Luminescence Cell-Based Dose-Confimation HTS to Identify Inhibitors of 5'UTR Stem-Loop Driven Alpha-Synuclein mRNA Translation in H4 Neuroglioblastoma Cells. [Related pubchem assays: 1827 (Project Summary), 1813 (Primary HTS)]; format: functional
# [2] = target: Leucine aminopeptidase (Plasmodium falciparum 3D7, UniProt Q8IL11); assay: P. falciparum M17LAP inhibitors, primary screen, biochemical, fluorogenic H-Leu-NHMec substrate, 1536-well (AID 1619); format: functional
# Sequence of Leucine aminopeptidase (Q8IL11 whole entry): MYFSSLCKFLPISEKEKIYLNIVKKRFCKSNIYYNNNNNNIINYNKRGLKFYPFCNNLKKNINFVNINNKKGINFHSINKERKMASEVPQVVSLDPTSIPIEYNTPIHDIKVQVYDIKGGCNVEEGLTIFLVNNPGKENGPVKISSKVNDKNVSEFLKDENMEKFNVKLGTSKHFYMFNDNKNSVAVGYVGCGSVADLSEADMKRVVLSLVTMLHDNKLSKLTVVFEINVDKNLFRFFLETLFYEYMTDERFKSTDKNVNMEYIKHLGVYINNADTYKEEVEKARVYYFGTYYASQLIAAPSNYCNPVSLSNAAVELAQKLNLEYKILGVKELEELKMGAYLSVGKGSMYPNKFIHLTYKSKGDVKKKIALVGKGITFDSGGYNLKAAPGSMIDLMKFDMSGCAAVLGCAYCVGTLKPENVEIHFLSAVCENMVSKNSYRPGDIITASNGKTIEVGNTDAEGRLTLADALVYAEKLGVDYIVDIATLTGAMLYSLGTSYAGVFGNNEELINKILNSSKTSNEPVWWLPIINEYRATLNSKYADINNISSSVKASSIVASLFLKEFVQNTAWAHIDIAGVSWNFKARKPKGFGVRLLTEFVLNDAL
# [3] = HEK-293T viability loss after treatment – luminescence, T-cell screen hits, cytotoxicity control for TCR NF-kB inhibitor project, dose response (AID 489026); format: functional, cell-based;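 also: cells exposed to compound about 14 hours before the viability readout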
# [4] = target: G-protein coupled receptor 55 (Homo sapiens, UniProt Q9Y2T6); assay: inhibition of LPI-stimulated GPR55 beta-arrestin translocation – imaging, U2OS, beta-arrestin-GFP, LPI agonist, primary screen (AID 2013); format: functional;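 also: antagonist potency measured as reduced agonist-driven arrestin aggregation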
# Sequence of G-protein coupled receptor 55 (Q9Y2T6 whole entry): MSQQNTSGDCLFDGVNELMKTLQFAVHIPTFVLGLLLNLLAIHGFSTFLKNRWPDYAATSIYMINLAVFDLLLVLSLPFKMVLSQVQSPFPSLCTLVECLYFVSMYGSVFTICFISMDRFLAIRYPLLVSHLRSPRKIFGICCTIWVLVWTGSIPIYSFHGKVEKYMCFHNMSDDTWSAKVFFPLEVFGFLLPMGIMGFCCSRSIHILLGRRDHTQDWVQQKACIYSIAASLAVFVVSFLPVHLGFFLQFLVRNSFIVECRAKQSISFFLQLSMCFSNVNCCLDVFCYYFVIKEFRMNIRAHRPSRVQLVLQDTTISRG
# [5] = test system: HeLa; assay: Cytotoxicity counterscreen assay for transcriptional activators of heat shock protein 70 (Hsp70). [Related pubchem assays: 1203, 1252 ]; format: functional; conditions: Homo sapiens;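 also: cells exposed to compound for 16 hours before readout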
# [6] = Luminescence-based dose response cell-based high throughput screening assay for cytotoxic compounds using the IEC-6 intestinal epithelial cell line. [Related pubchem assays: 1858 (Summary AID.), 1825 (Counterscreen.), 1907 (Confirmation screen.)]; format: functional
# [7] = target: T1, Type-1 angiotensin II receptor (Homo sapiens, UniProt P30556); assay: antagonism of angiotensin II type 1 receptor – cell-based, uHTS hits, selectivity assay for APJ receptor antagonist project, dose response (AID 463214); format: functional;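 also: antagonist potency against angiotensin II stimulated AT1 response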
# T1 sequence (P30556 whole entry): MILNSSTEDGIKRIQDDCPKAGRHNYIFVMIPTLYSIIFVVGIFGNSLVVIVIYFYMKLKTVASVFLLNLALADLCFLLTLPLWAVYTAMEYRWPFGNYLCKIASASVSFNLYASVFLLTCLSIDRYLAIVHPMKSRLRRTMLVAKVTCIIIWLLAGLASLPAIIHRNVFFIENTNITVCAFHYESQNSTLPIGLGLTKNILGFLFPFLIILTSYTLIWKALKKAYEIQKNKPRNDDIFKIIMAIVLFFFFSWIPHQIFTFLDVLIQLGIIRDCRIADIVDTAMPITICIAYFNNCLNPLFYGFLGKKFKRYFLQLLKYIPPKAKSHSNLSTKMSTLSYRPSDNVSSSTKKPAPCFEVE
# [8] = target: Beta-galactosidase (Escherichia coli, UniProt Q8VNN2); assay: PubChem AID 485352; format: functional
# [9] = target: NADPH oxidase 1 (Homo sapiens, UniProt Q9Y5S8); format: functional, cell-based;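 also: Cell-based assay with luminescence read-out, IC50 derived from inhibitor dose-response curves; intracellular ROS from endogenous NOX1 in intact HT29 colon cancer cells; potency of inhibitors that lower the ROS luminescence signal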
# Sequence of NADPH oxidase 1 (Q9Y5S8 whole entry): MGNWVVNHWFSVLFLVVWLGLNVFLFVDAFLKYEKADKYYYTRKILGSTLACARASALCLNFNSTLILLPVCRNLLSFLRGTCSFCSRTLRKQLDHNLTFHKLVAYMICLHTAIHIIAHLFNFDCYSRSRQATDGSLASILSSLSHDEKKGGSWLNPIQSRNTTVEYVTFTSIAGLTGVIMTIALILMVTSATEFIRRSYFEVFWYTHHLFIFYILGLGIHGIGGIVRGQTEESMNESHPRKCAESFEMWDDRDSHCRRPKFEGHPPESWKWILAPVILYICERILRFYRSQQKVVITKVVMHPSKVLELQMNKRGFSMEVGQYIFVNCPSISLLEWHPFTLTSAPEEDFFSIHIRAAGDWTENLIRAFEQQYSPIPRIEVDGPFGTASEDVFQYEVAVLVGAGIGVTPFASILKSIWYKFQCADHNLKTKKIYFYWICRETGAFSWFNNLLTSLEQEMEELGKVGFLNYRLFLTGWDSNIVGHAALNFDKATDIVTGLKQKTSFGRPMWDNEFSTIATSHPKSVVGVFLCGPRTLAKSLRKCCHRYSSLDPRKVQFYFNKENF
# [10] = target: Peroxisome proliferator-activated receptor gamma/Nuclear receptor coactivator 1 (Homo sapiens, UniProt P37231); format: functional;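 also: agonist potency as compounds enhance coactivator SRC-1 recruitment to PPARgamma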
# [11] = target: Peroxisome proliferator-activated receptor gamma/Nuclear receptor coactivator 2 (Homo sapiens, UniProt P37231); format: functional;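 also: agonist potency for raising coactivator recruitment to the receptor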
# [12] = target: Peroxisome proliferator-activated receptor gamma/Nuclear receptor coactivator 3 (Homo sapiens, UniProt P37231); format: functional;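 also: agonist potency for raising coactivator recruitment to the receptor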
# Sequence of Peroxisome proliferator-activated receptor gamma/Nuclear receptor coactivator 3 (P37231 whole entry): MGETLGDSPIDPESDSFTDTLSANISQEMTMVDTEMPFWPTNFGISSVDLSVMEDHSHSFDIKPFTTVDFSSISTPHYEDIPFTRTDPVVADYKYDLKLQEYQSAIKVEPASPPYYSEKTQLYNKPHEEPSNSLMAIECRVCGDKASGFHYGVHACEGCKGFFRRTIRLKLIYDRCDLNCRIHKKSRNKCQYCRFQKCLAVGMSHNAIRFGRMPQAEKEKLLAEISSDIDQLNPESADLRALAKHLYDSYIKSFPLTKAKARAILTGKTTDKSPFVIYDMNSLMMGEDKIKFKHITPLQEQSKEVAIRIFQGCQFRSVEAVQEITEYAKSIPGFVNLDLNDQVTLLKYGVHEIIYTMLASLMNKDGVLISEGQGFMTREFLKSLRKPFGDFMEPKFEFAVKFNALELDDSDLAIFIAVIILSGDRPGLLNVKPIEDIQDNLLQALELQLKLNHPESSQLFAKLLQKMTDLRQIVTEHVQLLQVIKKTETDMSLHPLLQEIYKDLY
# Sequence of Peroxisome proliferator-activated receptor gamma/Nuclear receptor coactivator 3 (Q9Y6Q9 whole entry, further chain): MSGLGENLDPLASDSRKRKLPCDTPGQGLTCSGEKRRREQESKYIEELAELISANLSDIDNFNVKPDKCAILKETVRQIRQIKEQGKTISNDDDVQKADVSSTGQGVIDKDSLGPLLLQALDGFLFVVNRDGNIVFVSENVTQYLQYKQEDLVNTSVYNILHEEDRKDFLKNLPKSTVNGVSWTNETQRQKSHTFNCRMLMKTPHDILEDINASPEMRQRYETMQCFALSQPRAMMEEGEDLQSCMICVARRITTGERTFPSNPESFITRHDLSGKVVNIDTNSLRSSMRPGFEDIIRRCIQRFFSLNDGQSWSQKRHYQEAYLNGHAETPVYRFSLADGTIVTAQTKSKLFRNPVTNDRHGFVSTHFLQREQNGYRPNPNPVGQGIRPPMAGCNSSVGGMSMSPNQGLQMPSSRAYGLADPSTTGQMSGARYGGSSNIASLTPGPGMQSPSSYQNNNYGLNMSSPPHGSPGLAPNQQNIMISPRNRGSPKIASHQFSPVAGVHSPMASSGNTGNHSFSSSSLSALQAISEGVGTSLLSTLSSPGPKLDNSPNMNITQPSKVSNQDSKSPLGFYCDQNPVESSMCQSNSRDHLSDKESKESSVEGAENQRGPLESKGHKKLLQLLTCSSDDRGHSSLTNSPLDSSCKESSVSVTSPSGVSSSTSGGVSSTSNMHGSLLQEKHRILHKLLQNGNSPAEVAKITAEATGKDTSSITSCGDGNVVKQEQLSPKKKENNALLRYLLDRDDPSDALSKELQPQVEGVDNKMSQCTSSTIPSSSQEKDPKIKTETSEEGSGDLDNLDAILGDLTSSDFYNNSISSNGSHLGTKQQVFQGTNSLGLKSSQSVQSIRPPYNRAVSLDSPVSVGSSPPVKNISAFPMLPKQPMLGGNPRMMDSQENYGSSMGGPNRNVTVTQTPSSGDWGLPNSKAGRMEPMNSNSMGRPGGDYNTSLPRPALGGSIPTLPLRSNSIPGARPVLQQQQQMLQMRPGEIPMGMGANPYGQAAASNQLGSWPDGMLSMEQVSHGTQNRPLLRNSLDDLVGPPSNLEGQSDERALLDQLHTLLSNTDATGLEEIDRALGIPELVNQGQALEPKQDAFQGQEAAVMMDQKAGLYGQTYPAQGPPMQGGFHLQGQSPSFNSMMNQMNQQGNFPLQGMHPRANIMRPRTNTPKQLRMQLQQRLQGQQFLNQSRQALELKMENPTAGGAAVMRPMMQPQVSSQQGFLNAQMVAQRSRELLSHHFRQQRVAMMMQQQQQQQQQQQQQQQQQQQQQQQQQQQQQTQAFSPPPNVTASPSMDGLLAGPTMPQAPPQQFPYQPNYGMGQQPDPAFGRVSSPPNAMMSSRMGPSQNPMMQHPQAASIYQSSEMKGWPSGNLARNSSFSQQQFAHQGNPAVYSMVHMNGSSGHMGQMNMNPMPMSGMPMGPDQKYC
# [13] = target: T2, Serine/threonine-protein phosphatase PP1-alpha catalytic subunit (Homo sapiens, UniProt P62136); assay: inhibition of protein phosphatase 1 activity – biochemical, fluorescence, dose response (AID 2403);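 also: phosphatase turnover of OMFP into fluorescent 3-O-methylfluorescein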
# T2 sequence (P62136 whole entry): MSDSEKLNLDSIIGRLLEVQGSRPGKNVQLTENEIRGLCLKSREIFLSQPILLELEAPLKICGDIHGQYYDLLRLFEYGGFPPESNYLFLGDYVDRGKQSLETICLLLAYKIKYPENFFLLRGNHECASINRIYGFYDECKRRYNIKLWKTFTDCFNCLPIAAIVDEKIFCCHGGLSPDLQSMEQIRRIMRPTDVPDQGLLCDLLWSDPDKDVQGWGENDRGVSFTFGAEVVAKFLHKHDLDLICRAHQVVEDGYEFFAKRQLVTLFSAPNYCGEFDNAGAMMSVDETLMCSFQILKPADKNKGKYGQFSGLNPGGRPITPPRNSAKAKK
# [14] = cells; format: functional, cell-based
# [15] = HPDE-C7 pancreatic duct cell viability loss – fluorescence, HTS (AID 430); format: functional, cell-based; conditions: Homo sapiens
# [16] = Trypanosoma cruzi growth suppression in host cells – NIH3T3 host cells, beta-gal luminescence, confirmation (AID 2044); format: functional, cell-based;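 also: intracellular parasites grown in NIH/3T3 mouse fibroblasts as host cells; luminescent beta-galactosidase reporter signal from transgenic T. cruzi replicating inside host cells; inhibitors lower the luminescence signal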
# [17] = viability loss in HepG2 hepatoma cells – cell-based, ATP luminescence, cherry-pick, activator set 2, cytotoxicity control, dose response (AID 1053143); format: functional
# [18] = cells; format: functional, cell-based; remark: listed apart in the source
# [19] = loss of viability in HepG2 cells – cell-based, CellTiter-Glo, cherry-picked, cytotoxicity control for Shn3 inhibitor project, dose response (AID 624134); format: functional
# [20] = test system: Streptococcus sp. 'group A'; assay: Streptococcus pyogenes SK(-)GAS viability under kanamycin – luminescence, BacTiterGlo, confirmation, counter-screen for streptokinase expression inhibitor project, dose response (AID 1900); format: functional, organism-based
# [21] = non-specific 3'UTR reporter inhibition in Clone20-Shn3RL – cell-based, Renilla luciferase, cherry-picked, counter-screen for Shn3 inhibitor project, dose response (AID 624133); format: functional
# [22] = NIH3T3 cell viability loss – ATP luminescence, mouse fibroblasts, counter-screen, dose response (AID 2010); format: functional, cell-based;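 also: cells exposed to compound for about 90 hours before reading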
# [23] = target: T3, Serine/threonine-protein phosphatase (Homo sapiens, UniProt Q9BPW0); assay: Counterscreen for inhibitors of PP1: fluorescence-based biochemical high throughput dose response assay to identify inhibitors of Protein Phosphatase 5 (PP5). [Related pubchem assays: 2034 (Summary (PP5 inhibitors)), 1987 (PP5 inhibitors in singlate), 2235 (PP1 inhibitors in singlate)]
# T3 sequence (Q9BPW0 whole entry): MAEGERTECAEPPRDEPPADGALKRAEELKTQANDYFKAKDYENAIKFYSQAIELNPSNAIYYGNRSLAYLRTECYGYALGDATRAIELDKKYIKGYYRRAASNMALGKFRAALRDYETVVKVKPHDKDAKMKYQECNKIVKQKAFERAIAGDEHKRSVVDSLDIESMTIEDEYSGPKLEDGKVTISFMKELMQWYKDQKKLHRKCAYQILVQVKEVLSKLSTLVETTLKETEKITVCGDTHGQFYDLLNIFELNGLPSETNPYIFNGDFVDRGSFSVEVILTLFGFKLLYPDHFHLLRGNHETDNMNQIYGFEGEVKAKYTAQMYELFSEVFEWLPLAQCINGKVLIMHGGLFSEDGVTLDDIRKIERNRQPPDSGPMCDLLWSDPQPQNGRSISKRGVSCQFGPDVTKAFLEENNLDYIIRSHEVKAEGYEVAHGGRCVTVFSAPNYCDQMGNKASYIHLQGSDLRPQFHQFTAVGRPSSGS
# [24] = target: T4, Streptokinase A (Streptococcus pyogenes serotype M1, UniProt P10520); assay: viability-normalized secreted streptokinase activity reduction – plasminogen activation absorbance, OD405, dose response (AID 1914); format: functional, Streptococcus pyogenes M1 GAS;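 also: secreted streptokinase activity via plasminogen activation per viability signal from cell pellet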
# T4 sequence (P10520 whole entry): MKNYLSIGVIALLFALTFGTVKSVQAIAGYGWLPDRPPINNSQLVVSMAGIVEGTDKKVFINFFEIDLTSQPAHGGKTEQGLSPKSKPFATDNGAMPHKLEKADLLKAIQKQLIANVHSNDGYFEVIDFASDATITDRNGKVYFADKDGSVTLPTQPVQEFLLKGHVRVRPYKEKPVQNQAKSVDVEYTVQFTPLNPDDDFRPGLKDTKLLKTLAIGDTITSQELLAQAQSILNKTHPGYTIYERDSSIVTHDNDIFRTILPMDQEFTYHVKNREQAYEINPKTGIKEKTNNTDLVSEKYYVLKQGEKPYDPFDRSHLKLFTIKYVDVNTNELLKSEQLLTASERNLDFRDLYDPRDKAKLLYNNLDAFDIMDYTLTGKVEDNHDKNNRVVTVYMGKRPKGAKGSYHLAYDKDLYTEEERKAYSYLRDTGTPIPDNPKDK
# [25] = viability loss of HPDE-C7K cells – cell-based, fluorescence, HTS, primary screen (AID 431); format: functional; conditions: Homo sapiens
# [26] = test system: INS1; assay: INS-1E survival protection against cytokine death – cell-based, luminescence, retest, dose response (AID 449756); format: functional; conditions: Rattus norvegicus;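 also: cell death triggered by IL-1 beta plus TNF-alpha plus IFN-gamma mixture; protective hits raise ATP signal compared with cytokine alone wells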
# [27] = target: Nonstructural protein 1 (Influenza A virus, UniProt Q194T2); format: functional, Influenza A virus (A/California/07/2009(H1N1))
# Sequence of Nonstructural protein 1 (Q194T2 whole entry): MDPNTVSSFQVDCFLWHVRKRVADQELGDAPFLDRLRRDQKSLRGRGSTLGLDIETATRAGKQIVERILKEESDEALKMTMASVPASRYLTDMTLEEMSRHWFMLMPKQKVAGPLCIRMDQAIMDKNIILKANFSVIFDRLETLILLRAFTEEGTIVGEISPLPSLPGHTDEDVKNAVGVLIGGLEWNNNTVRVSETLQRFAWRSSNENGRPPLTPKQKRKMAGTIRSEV
# [28] = IC50 of Artemis nuclease activity blockers – biochemical, fluorescence intensity, dose response (AID 720701); format: functional;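 also: Artemis endonuclease enzyme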
# [29] = reduction of Shn3 3'UTR-driven luciferase in osteoblasts – cell-based, Clone20 osteoblasts, firefly luciferase, cherry-picked, dose response (AID 624132); format: functional;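 also: firefly luciferase luminescence from reporter carrying the Shn3 3'UTR in osteoblasts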
# [30] = test system: Streptococcus; assay: GAS UMAA2166 growth inhibition – luminescence, BacTiterGlo, counter-screen for streptokinase expression inhibitor project, dose response (AID 1915); format: functional, organism-based;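 also: potency for reduction of bacterial viability or growth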
# [31] = viability of PTEN-deleted HCT116 cells – cell-based, HCT116 PTEN knockout, dose response (AID 1047); format: functional;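 also: HCT116 colon tumor cells with PTEN knocked out; cells exposed to compound for 60 hours before readout; potency for loss of cell viability measured by luminescence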
# [32] = target: Protein-tyrosine kinase 2-beta (Homo sapiens, UniProt Q14289);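 also: potency of inhibitors of PYK2 kinase phosphorylation of poly-GT substrate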
# [33] = target: ADP-ribosylation factor GTPase-activating protein 1 (Rattus norvegicus, UniProt Q62848); assay: Fluorescence polarization-based biochemical high throughput dose response screening assay to identify inhibitors of ADP-ribosylation factor GTPase activating protein 1 (ARFGAP1).; format: functional
# [34] = target: Arf-GAP with SH3 domain, ANK repeat and PH domain-containing protein 1 (Homo sapiens, UniProt Q9ULH1); format: functional;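 also: biochemical fluorescence polarization dose–response screen measuring inhibition of ASAP1; ASAP1 GAP domain stimulating GTP hydrolysis by truncated human ARF1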
# [35] = target: T2, Serine/threonine-protein phosphatase PP1-alpha catalytic subunit; assay: inhibition of protein phosphatase 1 activity – biochemical, fluorescence, dose response (AID 2394)
# [36] = target: T5, Heat shock factor protein 1 (Mus musculus, UniProt P38532); assay: enhancement of HSF1-driven luciferase signal – cell-based, NIH3T3, luminescence, dose retest, confirmation (AID 435004); format: functional;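 also: stress induced by proteasome inhibitor MG132 added 30 min after compound; luciferase reporter driven by HSF1 response element in NIH3T3 cells; actives raise luminescence as potentiators of the MG132 stress response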
# T5 sequence (P38532 whole entry): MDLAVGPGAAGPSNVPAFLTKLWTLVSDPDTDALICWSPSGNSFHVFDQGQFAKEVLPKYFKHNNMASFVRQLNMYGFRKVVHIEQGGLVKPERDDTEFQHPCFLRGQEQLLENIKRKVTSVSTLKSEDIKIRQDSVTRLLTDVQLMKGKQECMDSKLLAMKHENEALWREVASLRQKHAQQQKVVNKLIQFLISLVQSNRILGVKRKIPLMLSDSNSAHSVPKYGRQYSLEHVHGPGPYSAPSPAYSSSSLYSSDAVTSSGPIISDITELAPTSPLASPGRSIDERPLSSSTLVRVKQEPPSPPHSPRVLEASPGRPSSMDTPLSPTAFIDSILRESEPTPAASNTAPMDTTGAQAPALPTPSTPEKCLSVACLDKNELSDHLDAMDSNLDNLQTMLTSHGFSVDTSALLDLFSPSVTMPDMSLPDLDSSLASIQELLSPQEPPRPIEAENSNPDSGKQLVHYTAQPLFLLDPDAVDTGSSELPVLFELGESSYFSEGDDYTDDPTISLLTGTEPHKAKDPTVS
# [37] = target: T3, Serine/threonine-protein phosphatase; assay: inhibition of protein phosphatase 5 activity – biochemical, fluorescence, dose response (AID 2395)
# [38] = microbe, parasite or virus in culture; format: functional; conditions: Mycobacterium tuberculosis
# [39] = inhibition of ARNT PAS-B/TACC3 complex formation – biochemical, AlphaScreen, cherry-picked samples, confirmation (AID 651703); format: functional, Homo sapiens;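 also: His-tagged ARNT PAS-B domain paired with GST-TACC3 E629A dimer coactivator fragment; potency of inhibitors that break up the complex and lower AlphaScreen signal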
# [40] = target: T6, Heat shock 70 kDa protein 1A (Homo sapiens, UniProt P0DMV8); assay: small molecules displacing fluorescent ligand from Hsp70 – biochemical, fluorescence polarization, primary screen (AID 583)
# T6 sequence (P0DMV8 whole entry): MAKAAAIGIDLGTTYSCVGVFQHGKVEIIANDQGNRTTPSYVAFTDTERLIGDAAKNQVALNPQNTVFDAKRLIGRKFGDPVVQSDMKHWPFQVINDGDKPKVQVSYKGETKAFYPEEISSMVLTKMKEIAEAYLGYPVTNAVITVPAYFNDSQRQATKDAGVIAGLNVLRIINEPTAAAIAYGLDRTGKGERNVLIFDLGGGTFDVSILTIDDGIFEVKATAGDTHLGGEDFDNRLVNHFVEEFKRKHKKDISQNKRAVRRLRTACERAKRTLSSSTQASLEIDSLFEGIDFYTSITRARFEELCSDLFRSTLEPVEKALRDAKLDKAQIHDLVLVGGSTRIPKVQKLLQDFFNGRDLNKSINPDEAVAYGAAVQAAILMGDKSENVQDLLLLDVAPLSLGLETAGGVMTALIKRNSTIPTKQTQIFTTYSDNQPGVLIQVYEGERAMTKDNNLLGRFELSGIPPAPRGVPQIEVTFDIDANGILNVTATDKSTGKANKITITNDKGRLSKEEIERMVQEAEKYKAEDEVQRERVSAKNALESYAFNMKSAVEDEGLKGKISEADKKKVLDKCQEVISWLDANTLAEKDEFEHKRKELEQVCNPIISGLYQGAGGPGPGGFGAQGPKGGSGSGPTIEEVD
# [41] = target: T6, Heat shock 70 kDa protein 1A; assay: small-molecule inhibition of Hsp70 – biochemical, TR-FRET (AID 786)
compound,measurement,setting,value
Cc1cccc(C)c1-n1nnnc1SCc1nc(N)nc(N(C)C)n1,EC50,[1],8.3 µM (active)
COc1ccc(NC(=O)Nc2ccc(C(=O)N3CCOCC3)cc2)cc1,IC50,[2],31.6 µM (active)
COc1ccc(NC(=O)/C(Cl)=C(/Cl)[S+]([O-])Cc2ccccc2Cl)cn1 (stereo unspecified),IC50,[3],25.3 µM (inactive)
same,IC50,[4],3.25 µM (active)
same,CC50,[5],1.43 µM (active)
same,IC50,[6],1.36 µM (active)
same,IC50,[7],4.54 µM (active)
same,EC50,[8],> 40 µM (inactive)
CN(C)c1ccc(-c2nc(-c3ccccc3)c(-c3ccccc3)[nH]2)cc1,IC50,[9],7.95 µM (active)
O=C(CSc1ccc2nnc(-c3ccccn3)n2n1)NCc1ccc2c(c1)OCO2,EC50,[10],> 79.4 µM (not active)
same,EC50,[11],> 79.4 µM (not active)
same,EC50,[12],> 79.4 µM (not active)
Oc1c(C(Nc2ccccn2)c2ccccn2)ccc2cccnc12 (stereo unspecified),IC50,[13],3.82 µM (active)
same,EC50,[14],> 350 µM (not active)
same,EC50,[15],17.6 µM (active)
same,EC50,[16],1.22 µM (active)
same,AC50,[17],21.9 µM (active)
same,EC50,[18],9.9 µM (active)
same,AC50,[19],6 µM (active)
same,EC50,[20],7.44 µM (active)
same,AC50,[21],2.88 µM (active)
same,EC50,[22],5.87 µM (active)
same,IC50,[23],> 67 µM (not active)
same,EC50,[24],> 150 µM (not active)
same,EC50,[25],> 20 µM (not active)
same,AC50,[26],2.79 µM (active)
same,IC50,[27],8.2 µM (active)
same,IC50,[28],11.4 µM (active)
same,AC50,[29],4.36 µM (active)
same,EC50,[30],14.8 µM (active)
Cc1ccc2cc3cc(C(=O)NCc4ccc5c(c4)OCO5)oc3nc2c1,EC50,[31],20.9 µM (active)
same,IC50,[32],46.5 µM (not active)
same,IC50,[33],16.7 µM (inactive)
same,IC50,[34],12.5 µM (inactive)
CCCCN(CC)c1nc(N)c2c(N)nc(OCC)cc2c1C#N,IC50,[35],> 67 µM (not active)
same,EC50,[36],> 260 µM (inactive)
same,IC50,[37],15.2 µM (not active)
same,CC50,[38],> 40 µM (active)
same,AC50,[39],92.8 µM (active)
COCCCNC(=O)CC(NS(=O)(=O)c1ccc(C)cc1)c1ccco1 (stereo unspecified),IC50,[40],> 100 µM (not active)
same,IC50,[41],> 100 µM (not active)

# — ChEMBL document CHEMBL1201862, “PubChem BioAssay data set” (2004)
